Results on three compounds are retold here after article PMC6214143, “Oncotoxic Properties of Serotonin Transporter Inhibitors and 5-HT1A Receptor Ligands” (International Journal of Molecular Sciences, 2018).

Where a name gives a salt, the structure may show the parent alone.

The target in data set [1] is T1, 5-HT1A receptor (Homo sapiens, UniProt P08908).
T1 construct: EGFP; expressed in transfected cells
T1 sequence (P08908 1-422): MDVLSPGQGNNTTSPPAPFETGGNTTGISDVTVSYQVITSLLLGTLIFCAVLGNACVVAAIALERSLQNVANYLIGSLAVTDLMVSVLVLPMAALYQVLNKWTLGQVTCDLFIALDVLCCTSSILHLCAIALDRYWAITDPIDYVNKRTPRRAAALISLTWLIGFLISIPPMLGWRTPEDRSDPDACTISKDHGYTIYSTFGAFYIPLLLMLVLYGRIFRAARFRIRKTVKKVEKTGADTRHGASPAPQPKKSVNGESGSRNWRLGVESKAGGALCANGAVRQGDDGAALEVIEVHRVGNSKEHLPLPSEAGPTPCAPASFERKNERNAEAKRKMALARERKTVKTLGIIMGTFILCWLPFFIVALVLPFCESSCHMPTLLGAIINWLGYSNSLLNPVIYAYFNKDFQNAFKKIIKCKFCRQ
Kind of data set: ERK1/2 phosphorylation (HTRF) in HEK293 cells that overexpress the 5-HT1AR gene. The format is cell-based. To be noted: HEK293-5-HT1A cells. The method, then: (§1) The examination of the functional activity read out as cAMP level inhibition and ERK1/2 and Akt1 phosphorylation was performed according to the instructions of the One-plate Cisbio Bioassays cAMP dynamic 2, phospho-ERK (Thr202/Tyr204) and Akt1 phospho- S473 Cellular Assay Kits respectively, using a HEK293 human fibroblast cell line that overexpresses 5-HT1A receptors. […] The cAMP levels in PC-3 cells were determined using 600,000 cells/mL. Receptor activation with the appropriate ligands was carried out for 30 min, and then the cells were lysed. The results were analyzed with GraphPad Prism v 6.0 (GraphPad Software, San Diego, CA, USA) using its in-built functions. Ligand activity was determined using a 4-parameter equation of the dose-response function. […] M.
(§2) All compounds were tested with both agonists and antagonists. To test the response of cAMP to an agonist the cells were activated with forskolin (1 µM) followed by agonist addition. […] Data are an average of minimum three independent experiments in duplicate. The control of specific activity was measured under the same conditions on cells lacking the 5-HT1A receptor. The results were expressed as % of the reference agonist activity. In the antagonist mode 100% of the reference agonist activity (EC80) corresponded to 0% antagonist activity.
For orientation: TR-FRET usually uses a lanthanide donor and a delayed reading to cut background.

A further data set has as its system Balb/c 3T3 cells. Kind of data set: MTT cell survival assay, Balb/c 3T3 cells (normal reference). The data set is classed as cell-based, murine. Conditions: Mus musculus, BALB/c3T3, 72 h. The method, then: (§3) The effects of the test compounds on the survival of PC-3, SH-SY5Y, Balb/c 3T3 and HEK293 cells was measured with the aid of the 3-(4,5-dimethylthiazol-2-yl)-2,5-diphenyltetrazolium bromide (MTT) assay. The cells were cultured in 96-well plates (100 μL/well) for 72 h. The optimized initial densities were the following: for PC-3—60,000 cells/mL, SH-SY5Y and Balb/c 3T3—50,000 cells/mL.
(§4) After 20 h preincubation and evaluation of the uniformity of cell growth, the medium was aspirated, and the respective solutions of the substances were added to the culture medium. Control cells were only treated the solvent used for the compounds and medium alone.
(§5) MTT (3-(4,5-dimethylthiazol-2-yl)-2,5-diphenyltetrazolium bromide) is reduced by intracellular dehydrogenase, which is present only in live cells (mitochondria), to purple, water-insoluble formazan. After it is dissolved, formazan absorbance of the resulting solution is directly proportional to the number of living cells in culture.
After appropriate incubation, the culture medium was removed. Next, 50 μL of MTT solution (0.5 mg/mL) diluted in PBS to 0.5 mg/mL was added to each well. The plates were incubated for 3 h at 37 °C. Then, the precipitated formazan was dissolved by the addition of 200 μL isopropanol. After a 24-hour incubation at 4 °C in the dark, the absorbance of the dissolved formazan was measured at 570 nm (the maximum absorption of formazan) and at 690 nm (reference wavelength) using a Power Wave XS microplate spectrophotometer (Bio-Tek, Winooski, VT, USA). The plates were sealed to reduce evaporation before incubation. The test was performed in three to five independent experiments with four times the measured concentration tested. The cell survival percentage was determined as % of controls, which were cells treated with the test compound solvent at the highest concentration.
A general note: Tetrazolium assays rely on reduction of a dye to a coloured formazan, in cell work by metabolically active cells.

For data set [2], the target named is T1, 5-HT1A receptor. Kind of data set: cAMP level (HTRF) in HEK293 cells that overexpress the 5-HT1AR gene. The format is cell-based. As for the experimental part:
as §1, §2
(In general: cAMP levels reflect the balance of adenylyl cyclase and phosphodiesterase activity.)

A further data set concerns SH-SY5Y cells. The experiment in a line: MTT cell survival assay, SH-SY5Y cells. The data set is classed as cell-based, human. Conditions: for IC50: Homo sapiens, MTT, 72 h. The method, then: as §3, §4, §5
(§6) After appropriate incubation, the culture medium was removed. Next, 50 μL of MTT solution (0.5 mg/mL) diluted in PBS to 0.5 mg/mL was added to each well. […] Then, the precipitated formazan was dissolved by the addition of 200 μL isopropanol. […] The plates were sealed to reduce evaporation before incubation. The test was performed in three to five independent experiments with four times the measured concentration tested. The cell survival percentage was determined as % of controls, which were cells treated with the test compound solvent at the highest concentration.

The test system of data set [3] is PC-3 cells. Kind of data set: MTT cell survival assay, PC-3 cells. The format is cell-based, human. To be noted: for IC50: Homo sapiens, MTT, 72 h. The method, then:
as §3, §4, §5, §6

Data set [4] concerns the target T2, serotonin transporter (SERT) (Rattus norvegicus, UniProt P31652).
T2 construct: Rat cerebral cortex was homogenized in 30 volumes of ice-cold 50 mM Tris-HCl; from tissue; host or cells: rat cerebral cortex (membrane pellet)
Kind of data set: In vitro binding affinity for serotonin transporter ([3H]-citalopram displacement). To be noted: rat cerebral cortex, read-out: SERT Ki ± SEM. The method, then: The experiments were performed according to the method described by Owens et al. Rat cerebral cortex was homogenized in 30 volumes of ice-cold 50 mM Tris-HCl containing 150 mM NaCl and 5 mM KCl, pH 7.7 at 25 °C and centrifuged at 20,000 × g for 20 min. The supernatant was decanted, and the pellet was resuspended in 30 volumes of buffer and centrifuged three times. The final pellet was suspended in Tris-HCl buffer at a proportion of approximately 5 mg wet weight/mL. An increasing concentration of the analyzed compounds (30 μL) was added to the incubation mixture containing 240 μL of tissue suspension and 30 μL of 1 nM [^3H]-citalopram (used for labeling 5-HT-transporter). Non-specific binding was determined in the presence 30 μL of 1 μM imipramine (displacer). Duplicate samples were incubated at room temperature for 1 h. The incubation was terminated by rapid filtration over fiberglass filters FilterMate B (Perkin Elmer, Waltham, MA, USA) using a 96-well FilterMate harvester (PerkinElmer, Waltham, MA, USA). The radioactivity of the filters was measured with a MicroBeta TriLux 1450 scintillation counter. Ki values were calculated from the Cheng–Prusoff equation [31]: (1) Ki=IC50/1+Lo/KD where Lo is the labeled ligand concentration, and KD is the dissociation constant of the labeled ligand.

A further data set has as its system dopamine D2 receptor. Conditions: cited from earlier work.
The subject of data set [5] is PC-3 cells. Kind of data set: cAMP level in PC-3 prostate cancer cells. To be noted: Homo sapiens, 1 µM forskolin. The data set is classed as cell-based. The method, then:
(§7) The examination of the functional activity read out as cAMP level inhibition and ERK1/2 and Akt1 phosphorylation was performed according to the instructions of the One-plate Cisbio Bioassays cAMP dynamic 2, phospho-ERK (Thr202/Tyr204) and Akt1 phospho- S473 Cellular Assay Kits respectively, using a HEK293 human fibroblast cell line that overexpresses 5-HT1A receptors. The measurements were performed in 384-well microtiter plates using 200,000, 1,875,000 or 2,000,000 cells/mL. The cAMP levels in PC-3 cells were determined using 600,000 cells/mL. Receptor activation with the appropriate ligands was carried out for 30 min, and then the cells were lysed. The results were analyzed with GraphPad Prism v 6.0 (GraphPad Software, San Diego, CA, USA) using its in-built functions. Ligand activity was determined using a 4-parameter equation of the dose-response function. The response curves were obtained by plotting the HTRF® ratio (signal ratio 665/620 nm × 10,000) relative to the log concentration of the [compound] M.

Another data set concerns Akt pathway. Kind of data set: pAkt level (Akt1 phospho-S473 HTRF) in HEK293 cells that overexpress the 5-HT1AR gene. To be noted: Homo sapiens. The data set is classed as cell-based. As for the experimental part:
as §7

In data set [6] the target is 5-HT1A receptor. Conditions: cited from earlier work.
Details of data set [7]: method as in PMID 7705455. To be noted: rats, s.c.; cited from earlier work.
The mark [8] stands for this setting: agonist mode, read-out: ERK1/2 EC50.

The IC50 is the concentration that gives 50% inhibition. In general, melting point refers to the temperature of the solid-liquid transition. The Ki is a measure of affinity in units of concentration, obtained from inhibition or displacement. One may read the Kd as the equilibrium constant for the complex coming apart.

T2 sequence (P31652 whole entry): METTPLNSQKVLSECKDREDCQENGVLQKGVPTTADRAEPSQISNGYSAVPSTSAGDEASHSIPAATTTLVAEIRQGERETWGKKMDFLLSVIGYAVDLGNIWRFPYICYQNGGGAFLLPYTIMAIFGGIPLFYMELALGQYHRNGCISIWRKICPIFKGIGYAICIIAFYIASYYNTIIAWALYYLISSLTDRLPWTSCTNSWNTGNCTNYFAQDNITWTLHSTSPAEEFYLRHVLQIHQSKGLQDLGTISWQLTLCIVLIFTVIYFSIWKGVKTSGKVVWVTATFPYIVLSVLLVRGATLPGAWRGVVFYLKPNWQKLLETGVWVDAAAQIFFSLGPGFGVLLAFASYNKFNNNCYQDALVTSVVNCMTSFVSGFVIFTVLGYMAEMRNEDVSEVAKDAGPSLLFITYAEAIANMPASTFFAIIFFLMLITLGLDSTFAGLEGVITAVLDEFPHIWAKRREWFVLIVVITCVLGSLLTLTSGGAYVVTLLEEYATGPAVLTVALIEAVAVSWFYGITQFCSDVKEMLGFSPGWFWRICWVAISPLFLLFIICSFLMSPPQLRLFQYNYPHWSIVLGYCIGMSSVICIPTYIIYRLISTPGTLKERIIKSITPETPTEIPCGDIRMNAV

Turning to `Cl.O=[N+]([O-])c1ccc2nc(N3CCN(CC4CCC4)CC3)ccc2c1` [AB22, 2-[4-(cyclobutylmethyl)piperazin-1-yl]-6-nitroquinoline hydrochloride], the melting point lay within 99 to 101 °C. Further, the EC50 at 5-HT1A receptor [1] (setting [8]) was found to be 13800 pM. Further, the IC50 with Balb/c 3T3 cells turned out to be 35.5 ± 8.71 µM. The compound further had an IC50 against 5-HT1A receptor [2] of 76.1 µM. In the data set with SH-SY5Y cells (SH-SY5Y cells), this compound showed an IC50 of 35 ± 8.96 µM. Besides, the “Selectivity Index” value in the data set with SH-SY5Y cells (IC50 Balb/c 3T3 / IC50 SH-SY5Y) was determined as 1.01. The compound also came in with an IC50 with PC-3 cells [3] (PC-3 cells) of 23.5 ± 2.21 µM. For the same compound, in the data set on PC-3 cells [3] (IC50 Balb/c 3T3 / IC50 PC-3), the “Selectivity Index” value turned out to be 1.51. In data set [4], the Ki turned out to be 0.0076 ± 0.0008 µM.

As to `COc1ccc2cccc(N3CCN(CCNC(=O)c4ccc(F)cc4)CC3)c2c1.Cl` [Compound S14506, 4-Fluoro-N-[2-[4-(7-methoxy-1-naphthalenyl)-1-piperazinyl]ethyl]benzamide hydrochloride, reference compound], the EC50 on 5-HT1A receptor [1] (setting [8]) is 62 pM; at 5-HT1A receptor [1] (elevating phosphorylated ERK1/2 levels, read-out: MAPK/ERK1/2 pathway agonist EC50), 93 pM; at 5-HT1A receptor [2] (agonist mode, 1 µM forskolin-stimulated HEK293-5-HT1A cells), 25.4 pM; in the data set on PC-3 cells [5], 0.32 µM. For the same compound, the IC50 in the data set with Balb/c 3T3 cells was determined as 20.6 ± 2.58 µM; in the data set with SH-SY5Y cells (SH-SY5Y cells) it was 4.27 ± 0.41 µM; in the data set on PC-3 cells [5] (read-out: cAMP biochemical pathway IC50) it was 0.32 µM; with Akt pathway, 15.5 µM; in the data set with PC-3 cells [3] (PC-3 cells) it was 9.98 ± 1.26 µM. Also, the “dopamine D2 receptor properties” value with dopamine D2 receptor is listed as “dopamine D2 receptor antagonist”. In addition, the “cytotoxic activity in the presence of WAY100635 and spiperone” value in the data set with SH-SY5Y cells (SH-SY5Y cells, WAY100635 (5 µM), spiperone (5 µM)) is on record as “not against neuroblastoma SH-SY5Y cells”; in the data set on PC-3 cells [3] (PC-3 cells, WAY100635 (5 µM), spiperone (5 µM)) it was “reversed”. For the same compound, at 5-HT1A receptor [6], the Kd is 0.00079 ± 0.0002 µM.

As for `CCCN(CCC)[C@@H]1CCc2cccc(O)c2C1` [Compound 8-OH-DPAT, (2R)-(+)-8-Hydroxy-2-(di-n-propylamino)tetralin hydrobromide], the “minimal effective dose (MED), reduction of immobility” value in data set [7] is given as 0.63 mg/kg.
